According to patent US7183075B2, “Purified and isolated potassium-chloride cotransporter nucleic acids and polypeptides and therapeutic and screening methods using same” (Vanderbilt University, priority 2000, dated 2007):
Where two headings read alike, the source gives them in different places. Each block holds one compound with its values, some of them ahead of it.

Molecular target: T1, hKCC2 (Homo sapiens, UniProt Q9H2X9, L143X/L381X/L939X)
T1 construct: expressed in transfected cells; host or cells: Xenopus laevis oocytes injected with 25 ng hKCC2 cRNA
T1 sequence (Q9H2X9 with tags, fused parts or gaps isoform Q9H2X9-2 L120X/L358X/L916X limits assumed): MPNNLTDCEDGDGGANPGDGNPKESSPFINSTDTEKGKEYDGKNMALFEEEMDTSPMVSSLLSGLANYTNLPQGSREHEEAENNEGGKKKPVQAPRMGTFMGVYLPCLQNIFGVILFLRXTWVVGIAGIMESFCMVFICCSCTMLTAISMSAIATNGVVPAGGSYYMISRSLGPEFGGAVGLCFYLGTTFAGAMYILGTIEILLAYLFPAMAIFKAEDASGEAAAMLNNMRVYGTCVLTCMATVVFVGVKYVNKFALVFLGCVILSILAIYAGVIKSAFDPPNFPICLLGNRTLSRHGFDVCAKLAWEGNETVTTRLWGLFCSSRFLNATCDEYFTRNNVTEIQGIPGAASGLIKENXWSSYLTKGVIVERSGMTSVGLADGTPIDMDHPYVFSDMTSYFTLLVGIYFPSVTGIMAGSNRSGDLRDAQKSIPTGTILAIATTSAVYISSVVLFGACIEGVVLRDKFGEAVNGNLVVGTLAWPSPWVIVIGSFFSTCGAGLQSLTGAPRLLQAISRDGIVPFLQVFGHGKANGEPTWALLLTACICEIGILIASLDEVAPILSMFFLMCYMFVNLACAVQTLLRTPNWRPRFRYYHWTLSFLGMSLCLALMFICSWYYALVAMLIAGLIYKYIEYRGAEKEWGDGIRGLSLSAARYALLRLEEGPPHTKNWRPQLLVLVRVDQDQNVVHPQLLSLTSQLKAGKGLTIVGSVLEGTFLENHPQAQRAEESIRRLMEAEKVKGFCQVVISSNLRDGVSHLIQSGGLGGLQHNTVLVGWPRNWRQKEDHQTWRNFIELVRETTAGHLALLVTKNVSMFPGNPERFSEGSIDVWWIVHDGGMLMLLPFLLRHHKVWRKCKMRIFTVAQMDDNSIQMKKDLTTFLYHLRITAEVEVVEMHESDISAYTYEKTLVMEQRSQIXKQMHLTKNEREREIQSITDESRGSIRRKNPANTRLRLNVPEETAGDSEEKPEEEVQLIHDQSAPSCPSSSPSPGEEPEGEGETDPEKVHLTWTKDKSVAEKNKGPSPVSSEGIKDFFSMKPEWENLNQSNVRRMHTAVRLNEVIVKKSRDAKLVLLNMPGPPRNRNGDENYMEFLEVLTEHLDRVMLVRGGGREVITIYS
Experiment: 86Rb+ uptake (K+-Cl- cotransport) in Xenopus oocytes injected with hKCC2 cRNA
Format: cell-based
Description: Oocytes were surgically collected from anesthetized female Xenopus adults under 0.17% tricaine and incubated for 1 hour with vigorous shaking in frog Ringer ND96 (96 mM sodium chloride, 2 mM potassium chloride, 1.8 mM calcium chloride, 1.0 mM magnesium chloride, and 5 mM Hepes/Tris, pH 7.4) in the presence of 2 mg/ml collagenase B. Oocytes were then washed four times in ND96, manually defolliculated, and incubated overnight in ND96 at 18° C. On the next day, defolliculated stage V–VI oocytes were injected with 50 nl of water or a solution containing cRNA at a concentration of 0.25–0.5 μg/μl (25 ng/oocyte). Oocytes were incubated at 17–18° C. in ND96 (96 mM sodium chloride, 2 mM potassium chloride, 1.8 mM calcium chloride, 1.0 mM magnesium chloride, and 5 mM Hepes/Tris, pH 7.4), supplemented with 2.5 mM sodium pyruvate and 5 mg/100 ml gentamicin, for 3–4 days. The incubation medium was changed every 24 hours. On the day of the experiment, oocytes were switched to Cl^−-free ND96 (96 mM Na^+ Na^+ isethionate, 2 mM K^+ gluconate, 6 mM Ca^2+ gluconate, 1 mM Mg^2+ gluconate, 5 mM Hepes, 2.5 mM sodium pyruvate, 5 mg/100 ml gentamicin, pH 7.4) for 2 hours prior to the uptake assay.
K^+—Cl^− cotransport was assessed by measuring tracer ^86Rb^+ uptake (NEN® Life Science Products of Boston, Mass.) in experimental groups of at least 15 oocytes. […] All uptake solutions also contained 1.8 mM CaCl2, 1 mM MgCl2, 5 mM Hepes, pH 7.4, and were supplemented with 1 mM ouabain and […] ^86Rb^+. Isotonic conditions were generated by supplementing the same solutions with 3.5 g/100 ml sucrose to reach isosmolar conditions for oocytes (˜210 mOsm/kg). Ouabain was added to prevent ^86Rb^+ uptake via the Na^+—K^+-ATPase. The absence of extracellular Na^+ and the hypotonicity of the uptake medium prevented ^86Rb^+ uptake via the endogenous Na^+—K^+-2Cl^− cotransporter that is present in oocytes (Gamba et al. (1994) J Biol Chem 269:17713–17722).
All uptake assays were performed at 32° C. At the end of the uptake period, oocytes were washed five times in ice-cold uptake solution without isotope to remove extracellular fluid tracer. Oocytes were dissolved in 10% SDS, and tracer activity was determined for each oocyte by β-scintillation counting.
Uptake assays to detect K^+—Cl^− cotransport mediated by a hKCC2 were performed using similar methods.
FIG. 10 presents line graphs depicting concentration dependence of K^+—Cl^− cotransport mediated by hKCC2, which was used to calculate ion affinities using analogous methods. Uptake assays were simultaneously assessed in water-injected oocytes. To determine ^86Rb^+ uptake due to KCC2, the mean values for water groups were subtracted from the mean values for corresponding KCC2 groups. Uptake assays in hypotonic media were performed for 60 minutes with a fixed concentration of K^+or Cl^− at 50 mM. The concentration of the counterion was varied from 0 to 50 mM as indicated.

[1] = hKCC2, hypotonic, counterion fixed at 50 mM, 86Rb+ as substitute for K+, read-out: Km (Michaelis-Menten fit)

IC50 (KCC2): 90 µM
Compound: NS(=O)(=O)c1cc(C(=O)O)c(NCc2ccco2)cc1Cl [furosemide]

Compound: [K+] [Potassium]
Km (KCC2, read-out: Potassium Km): 9.3 mM
Km [1]: 9.3 mM

Compound: HgCl2 [Hg—Cl2]
response of KCC2 to mercury (50 μM HgCl2, hypotonic): sensitive

Compound: Cl [Chloride]
Km (KCC2, read-out: Chloride Km): 6.3 mM
Km [1]: 6.31 mM
